“And” between values parts separate entries of the source, which are not always exact repeats. Equal values may be shown once.
Columns and labels:
[1] = system: Mus musculus; details: subchronic, duration: 90 days, inhalation, Crl:CD-1 (ICR) BR
[2] = system: Oryctolagus sp.; details: duration: 12 days, inhalation, New Zealand
[3] = F, General Toxicity: Whole Body: Body Weight Change + General Toxicity: Whole Body: Clinical Observations + General Toxicity: Whole Body: …
[4] = F, Nervous: Brain: Brain Weight, Absolute + Nervous: Brain: Brain Weight, Relative
[5] = M, Blood: Triglycerides (TRIG), Blood + Whole Body: Mortality
[6] = M, General Toxicity: Whole Body: Body Weight Change + General Toxicity: Whole Body: Clinical Observations + General Toxicity: Whole Body: …
[7] = M, Nervous: Brain: Brain Weight, Absolute + Nervous: Brain: Brain Weight, Relative
[8] = reproduction developmental, F, generation: P0, P0: Developmental: Uterus: Implantation + P0: Developmental: Uterus: Pre-Implantation Loss + P0: Developmental: Uterus: Resorptions, Mean/…
[9] = reproduction developmental, F, generation: P0, P0: Developmental: Uterus: Resorptions, Mean/Litter + P0: General Toxicity: Whole Body: Body Weight Change + P0: General Toxicity: Whole …
[10] = reproduction developmental, F, generation: P0, P0: Whole Body: Clinical Observations

FC(Cl)C(F)(F)F (stereo not given) [2-Chloro-1,1,1,2-tetrafluoroethane]
27900 mg/m3 and 83700 mg/m3: NOAEL ([2]; developmental, M/F, generation: F1, F1: Developmental: Whole Body: External Abnormalities + F1: Developmental: Whole Body: Live Pups Born + F1: Developmental: Whole Body: Pup …)
27900 mg/m3: NOAEL [1, 4] | LEL ([1]; F, Whole Body: Mortality) | NEL [1, 5] | LEL ([1]; M, Heart: Heart Weight, Relative + Whole Body: Body Weight Change) | NOAEL [1, 7] | NOAEL [2, 8]
83700 mg/m3: LOAEL ([1]; F, Cardiovascular: Heart: Heart Weight, Absolute + Cardiovascular: Heart: Heart Weight, Relative + Endocrine: Adrenal: Adrenal Gland Weight, …) | NOAEL [1, 3] | LOAEL [1, 4] | LEL [1, 5] | LOAEL ([1]; M, Cardiovascular: Heart: Heart Weight, Absolute + Cardiovascular: Heart: Heart Weight, Relative + Endocrine: Adrenal: Adrenal Gland Weight, …) | NOAEL [1, 6] | LOAEL [1, 7] | LOAEL [2, 8] | NOAEL [2, 9] | NEL [2, 10]
279000 mg/m3: NEL ([1]; F, Adrenal: Adrenal Gland Weight, Absolute + Adrenal: Adrenal Gland Weight, Relative + Blood: Hematology, Unspecified + Brain: Brain Weight, …) | LOAEL [1, 3] | NEL ([1]; M, Adrenal: Adrenal Gland Weight, Absolute + Adrenal: Adrenal Gland Weight, Relative + Blood: Hematology, Unspecified + Brain: Brain Weight, …) | LOAEL [1, 6] | NOAEL ([2]; developmental, M/F, generation: F1, F1: Developmental: Uterus: Dead Fetuses + F1: Developmental: Uterus: Fetuses, Live + F1: Developmental: Whole Body: Body Weight, Fetal + F1…) | NEL ([2]; developmental, M/F, generation: F1, F1: Uterus: Fetuses, Dead + F1: Uterus: Fetuses, Live + F1: Whole Body: Body Weight, Fetal + F1: Whole Body: External Abnormalities) | NEL ([2]; developmental, M/F, generation: F1, F1: Whole Body: External Abnormalities + F1: Whole Body: Live Pups Born + F1: Whole Body: Pup Weight Relative to Litter + F1: Whole Body: …) | NOAEL ([2]; reproduction developmental, F, generation: P0, P0: Developmental: Uterus: Implantation + P0: Developmental: Uterus: Number of Viable Fetuses + P0: Developmental: Uterus: Pre-Implantation …) | NOAEL ([2]; reproduction developmental, F, generation: P0, P0: Developmental: Uterus: Implantation + P0: Developmental: Uterus: Pre-Implantation Loss + P0: Reproductive: Ovary: Corpora Lutea) | LOAEL [2, 9] | NEL ([2]; reproduction developmental, F, generation: P0, P0: Liver: Liver Weight, Absolute + P0: Liver: Liver Weight, Relative + P0: Ovary: Corpora Lutea + P0: Uterus: Implantation + P0: Uterus: …) | NEL ([2]; reproduction developmental, F, generation: P0, P0: Ovary: Corpora Lutea + P0: Uterus: Implantation + P0: Uterus: Pre-Implantation Loss + P0: Uterus: Resorptions, Mean/Litter + P0: Whole …) | LEL [2, 10]
